{"source": "paper PMC5218480", "about": "(PLoS ONE, 2017)", "test_system": "MV-4-11 and HL-60 cells", "assay": "Quantitative real time PCR (qPCR) of CDKN1A, CDKN1C, GATA2, HES1", "assay_type": "cell-based, human", "conditions": "MV-4-11 and HL-60, 48 hours", "protocol": "RNA isolations were performed on a Qiacube (Qiagen) using the RNeasy Micro Kit (Qiagen) according to manufacturer’s protocol. RNA was converted to cDNA using the High Capacity RNA-to-cDNA Kit (Life Technologies) and qPCR performed using the Taqman Gene Expression Max Mix according to manufacturer’s protocol (Applied Bioscience). The following ThermoFisher taqman probes were used: GATA2 (Hs01060665_g1), GAPDH (Hs0275899_g1), ACTB (Hs00231119_m1), CDKN1A (Hs00355782_m1), CDKN1C (Hs00175938_m1), HES1 (Hs00172878_m1).", "data": [{"smiles": "Nc1ccc(-c2cccs2)cc1NC(=O)c1ccc2c(c1)cc(C1CC1)n2CCN1CCOCC1", "note": "[ACY-1035]", "values": [{"measurement": "expression of CDKN1A, CDKN1C, GATA2 and HES1 (qPCR)", "value": "up-regulated"}]}, {"smiles": "Nc1ncn([C@@H]2O[C@H](CO)[C@@H](O)[C@H]2O)c(=O)n1", "note": "[azacitidine]", "values": [{"measurement": "expression of CDKN1A, CDKN1C, GATA2 and HES1 (qPCR)", "value": "up-regulated"}]}]}
